In patent publication US20240279214A1, “ALPHA4 BETA7 INEGRIN ANTAGONISTS AND USES THEREOF” (XinThera, Inc., priority 2022, published 2024):
Where two headings read alike, the source gives them in different places.

Tests used:
[1] = ether bond, 13-membered ring, 100.0 °C
[2] = ether bond; 13-membered ring; CuI/K2CO3/(1R,2R)-N1,N2-dimethylcyclohexane-1,2-diamine; 1,4-dioxane; 33.3 mM; 100.0 °C

Question: Which ring closure, yield after HPLC ([1]; from CCOC(=O)C[C@H](NC(=O)C(c1cccc(Br)c1)n1cc(CCN2CC(F)C2)c(C(F)(F)F)cc1=O)c1cc(-c2c(C)cc(C3CC3)cc2O)cc(C(F)(F)F)c1F, CuI/(1R,2R)-N1,N2-dimethylcyclohexane-1,2-diamine/K2CO3, dioxane, 40.0 mM, 16.0 h) does the source give for `CCOC(=O)C[C@@H]1NC(=O)C(n2cc(CCN3CC(F)C3)c(C(F)(F)F)cc2=O)c2cccc(c2)Oc2cc(C3CC3)cc(C)c2-c2cc1c(F)c(C(F)(F)F)c2` (stereo partly drawn) here?
Answer: 31.4%

Question: Which ring closure, yield after HPLC ([1]; from CCOC(=O)C[C@H](NC(=O)C(c1cccc(Br)c1)n1cc(CCN2CC(F)C2)c(C(F)(F)F)cc1=O)c1cc(-c2c(C)cc(Cl)cc2O)cc(C(F)(F)F)c1F, CuI/(1R,2R)-N1,N2-dimethylcyclohexane-1,2-diamine/K2CO3, dioxane, 34.0 mM, 4.0 h) does the source give for `CCOC(=O)C[C@@H]1NC(=O)C(n2cc(CCN3CC(F)C3)c(C(F)(F)F)cc2=O)c2cccc(c2)Oc2cc(Cl)cc(C)c2-c2cc1c(F)c(C(F)(F)F)c2` (stereo partly drawn) here?
Answer: 33%

Question: For `CCOC(=O)C[C@@H]1NC(=O)C(n2ccc3occc3c2=O)c2cc(ccc2F)Oc2cccc(C)c2-c2cc(C)c(F)c1c2` (stereo partly drawn), which ring closure, yield after HPLC ([1]; from CCOC(=O)C[C@H](NC(=O)C(c1cc(Br)ccc1F)n1ccc2occc2c1=O)c1cc(-c2c(C)cccc2O)cc(C)c1F, CuI/(1S,2S)-N,N'-dimethylcyclohexane-1,2-diamine/K2CO3, dioxane, 30.0 mM, 4.0 h) is on record?
Answer: 36.3%

Question: For `CCOC(=O)C[C@@H]1NC(=O)C(n2cccc(-c3ccccc3)c2=O)c2cc(ccc2F)Oc2cccc(C)c2-c2cc(C)c(F)c1c2` (stereo partly drawn), which ring closure, yield after HPLC ([1]; from CCOC(=O)C[C@H](NC(=O)C(c1cc(Br)ccc1F)n1cccc(-c2ccccc2)c1=O)c1cc(-c2c(C)cccc2O)cc(C)c1F, CuI/(1R,2R)-N,N'-dimethylcyclohexane-1,2-diamine/K2CO3, dioxane, 70.0 mM, 2.0 h) is on record?
Answer: 48.2%

Question: With `CCOC(=O)C[C@@H]1NC(=O)C(n2ccc3ccoc3c2=O)c2cc(ccc2F)Oc2cccc(C)c2-c2cc(C)c(F)c1c2` (stereo in doubt) as the compound, how does the ring closure, yield after HPLC ([1]; from CCOC(=O)C[C@H](NC(=O)C(c1cc(Br)ccc1F)n1ccc2ccoc2c1=O)c1cc(-c2c(C)cccc2O)cc(C)c1F, CuI/(1R,2R)-N,N'-dimethylcyclohexane-1,2-diamine/K2CO3, 1,4-dioxane, 37.5 mM, 4.0 h) read?
Answer: 50.9%

Question: For “ethyl 2-[(14S,17S)-20-cyclopropyl-12,19-difluoro-3-methyl-15-oxo-14-[2-oxo-4-(trifluoromethyl) pyridin-1-yl]-8-oxa-16-azatetracyclo [16.3.1.1^{9,13}.0^{2,7}]tricosa-1(22),2(7),3,5,9,11,13(23),18,20-nonaen-17-yl]acetate”, which ring closure, isolated yield [2] is on record?
Answer: 56.2%
